In turn, `COCCOc1cc2ncc(C#N)c(NC3CCCC3)c2cc1OC` [Example 9, 4-Cyclopentylamino-6-methoxy-7-(2-methoxyethoxy)-3-quinolinecarbonitrile] returned a melting point of 87 to 90 °C.
To `COc1cc(Nc2c(C#N)cnc3cc(SCc4ccccc4)c(OC)cc23)c(Cl)cc1Cl` [Example 11, 7-Benzylthio-4-[(2,4-dichloro-5-methoxyphenyl)amino]-6-methoxy-3-quinolinecarbonitrile] belongs 123 to 125 °C.
To `COCCOc1cc2ncc(C#N)c(Nc3ccc(C)cc3C)c2cc1OC` [Example 40, 4-[(2,4-Dimethylphenyl)amino]-6-methoxy-7-(2-methoxyethoxy)quinoline-3-carbonitrile] belongs 107 to 109 °C; to `COCCOc1cc2c(Nc3cc(OC)c(Cl)cc3Cl)c(C#N)cnc2cc1OCC1CCN(C)CC1` [Example 22, 4-[(2,4-Dichloro-5-methoxyphenyl)amino]-6-[2-methoxyethoxy]-7-[(1-methylpiperidine-4-yl)methoxy]3-quinolinecarbonitrile], 153 to 155 °C; to `COCCOc1ccc2c(Nc3ccc(Cl)cc3Cl)c(C#N)cnc2c1` [Example 34, 4-[(2,4-Dichlorophenyl)amino]-7-(2-methoxyethoxy)-3-quinolinecarbonitrile], 144 to 145 °C.
To `COCCNc1cc2ncc(C#N)c(Nc3cc(OC)c(Cl)cc3Cl)c2cc1OC` [Example 56, 4-[(2,4-Dichloro-5-methoxyphenyl)amino]-6-methoxy-7-[(2-methoxyethyl)amino]quinoline-3-carbonitrile] belongs 165 to 166 °C; to `COCCOc1cc2ncc(C#N)c(Nc3cc(OC)c(OC)c(OC)c3)c2cc1OC` [Example 17, 6-Methoxy-7-[2-methoxyethoxy]-4-[(3,4,5-trimethoxyphenyl)amino]-3-quinolinecarbonitrile], 188 to 190 °C.
`COc1cc(Nc2c(C#N)cnc3cc(OCC4CCNCC4)c(OC)cc23)c(Cl)cc1Cl` [Example 53, 4-[(2,4-Dichloro-5-methoxyphenyl)amino]-6-methoxy-7-(piperidin-4-ylmethoxy)quinoline-3-carbonitrile] returned a melting point of 134 to 138 °C.
Under `COc1ccc(C)c(Nc2c(C#N)cnc3cc(OCCCC4CCN(C)CC4)c(OC)cc23)c1` [Example 48, 6-Methoxy-4-[(5-methoxy-2-methylphenyl)amino]-7-[3-(1-methylpiperidine-4-yl)propoxy]quinoline-3-carbonitrile] stands 163 to 166 °C; under `COc1cc(Nc2c(C#N)cnc3cc(NCCCC4CCN(C)CC4)c(OC)cc23)c(Cl)cc1Cl` [Example 28, 4-[(2,4-Dichloro-5-methoxyphenyl)amino]-6-methoxy-7-{[3-(1-methylpiperidin-4-yl)propyl]amino}quinoline-3-carbonitrile], 122 to 124 °C.
To `COc1cc(Nc2c(C#N)cnc3cc(OCC(C)(C)CN(C)C)c(OC)cc23)c(Cl)cc1Cl` [Example 2, 4-[(2,4-Dichloro-5-methoxyphenyl)amino]-7-(3-dimethylamino-2,2-dimethylpropoxy)-6-methoxy-3-quinolinecarbonitrile] belongs 178 to 180 °C; to `COc1cc(Nc2c(C#N)cnc3cc(OCC4CCCCO4)c(OC)cc23)c(Cl)cc1Cl` (stereo not drawn) [Example 25, 4-[(2,4-Dichloro-5-methoxyphenyl)amino]-6-methoxy-7-(tetrahydro-2H-pyran-2-ylmethoxy)3-quinolinecarbonitrile], 193 to 196 °C; to `COc1cc(Nc2c(C#N)cnc3cc(OCc4cccs4)c(OC)cc23)c(Cl)cc1Cl` [Example 5, 4-[(2,4-Dichloro-5-methoxyphenyl)amino]-6-methoxy-7-(2-thienylmethoxy)-3-quinolinecarbonitrile], 194 to 196 °C.
Under `COc1cc2c(Nc3ccc(Sc4nccn4C)c(Cl)c3)c(C#N)cnc2cc1NCCCN(C)C` [Example 29, 4-[3-Chloro-4-(1-methyl-1H-imidazol-2-ylsulfanyl)-phenylamino]-7-{[3-(dimethyl)aminopropyl]amino}-6-methoxyquinoline-3-carbonitrile] stands 198 to 200 °C; under `COCCOc1cc2ncc(C#N)c(Nc3cc(OC)c(Cl)cc3Cl)c2cc1OCCN1CCOCC1` [Example 26, 4-[(2,4-Dichloro-5-methoxyphenyl)amino]-7-(2-methoxyethoxy)-6-(2-morpholin-4-ylethoxy)3-quinolinecarbonitrile], 158 to 159 °C; under `CC#CCOc1cc2ncc(C#N)c(Nc3cc(OC)c(Cl)cc3Cl)c2cc1OC` [Example 1, 7-(2-Butynyloxy)-4-[(2,4-dichloro-5-methoxyphenyl)amino]-6-methoxy-3-quinolinecarbonitrile], 193 to 197 °C.
The compound `COc1cc(Nc2c(C#N)cnc3cc(Sc4ccccc4)c(OC)cc23)c(Cl)cc1Cl` [Example 8, 4-[(2,4-Dichloro-5-methoxyphenyl)amino]-6-methoxy-7-phenylsulfanyl-3-quinolinecarbonitrile] came in with a melting point of 220 to 222 °C.
Under `CCN1CCN(CCCOc2cc3ncc(C#N)c(Nc4ccc(Sc5nccn5C)c(Cl)c4)c3cc2OCCOC)CC1` [Example 21, 4-({3-Chloro-4-[(1-methyl-1H-imidazol-2-yl)sulfanyl]phenyl}amino)-7-[3-(4-ethyl-1-piperazinyl)propoxy]-6-(2-methoxyethoxy)-3-quinolinecarbonitrile] stands 188 to 190 °C; under `COc1cc2c(Nc3ccc(C)cc3C)c(C#N)cnc2cc1OCCCC1CCN(C)CC1` [Example 49, 4-[(2,4-Dimethylphenyl)amino]-6-methoxy-7-[3(1-methylpiperidine-4-yl)propoxy]quinoline-3-carbonitrile], 159 to 162 °C; under `COCCOc1cc2c(Nc3ccc(Sc4nccn4C)c(Cl)c3)c(C#N)cnc2cc1OCCCN(C)C` [Example 20, 4-({3-Chloro-4-[(1-methyl-1H-imidazol-2-yl)sulfanyl]phenyl}amino)-7-[3-(dimethylamino)propoxy]-6-(2-methoxyethoxy)-3-quinolinecarbonitrile], 194 to 203 °C.
Under `CCCCNc1c(C#N)cnc2cc(OCCOC)c(OC)cc12` [Example 10, 4-Butylamino-6-methoxy-7-(2-methoxyethoxy)-3-quinolinecarbonitrile] stands 99 to 102 °C.
To `CCN1CCC(COc2cc3ncc(C#N)c(Nc4cc(OC)c(Cl)cc4Cl)c3cc2OC)CC1` [Example 51, 4-[(2,4-Dichloro-5-methoxyphenyl)amino]-7-[(1-ethylpiperidine-4-yl)methoxy]-6-methoxyquinoline-3-carbonitrile] belongs 192 to 195 °C; to `COCCOc1cc2ncc(C#N)c(Nc3cc(OC)ccc3Cl)c2cc1OC` [Example 38, 4-[(2-Chloro-5-methoxyphenyl)amino]-6-methoxy-7-(2-methoxyethoxy)quinoline-3-carbonitrile], 179 to 181 °C.
`COc1cc2c(Nc3ccc(Sc4nccn4C)c(Cl)c3)c(C#N)cnc2cc1N(C)CCCN(C)C` [Example 30, 4-[3-Chloro-4-(1-methyl-1H-imidazol-2-ylsulfanyl)-phenylamino]-7-{[3-(dimethylamino)propyl]-methylamino}-6-methoxyquinoline-3-carbonitrile] showed a melting point of 196 to 201 °C.
Under `COCCOc1ccc2c(Nc3cc(OC)c(Cl)cc3Cl)c(C#N)cnc2c1` [Example 33, 4-[(2,4-Dichloro-5-methoxyphenyl)amino]-7-(2-methoxyethoxy)-3-quinolinecarbonitrile] stands 182 to 183 °C.
Under `COCCOc1cc2ncc(C#N)c(Nc3cc(OC)c(C)cc3C)c2cc1OC` [Example 37, 4-[(2,4-Dimethyl-5-methoxyphenyl)amino]-6-methoxy-7-(2-methoxyethoxy)quinoline-3-carbonitrile] stands 143 to 145 °C.
`COc1cc(Nc2c(C#N)cnc3cc(OCCCN4CCS(=O)(=O)CC4)c(OC)cc23)c(Cl)cc1Cl` [Example 3, 4-[(2,4-Dichloro-5-methoxyphenyl)amino]-7-[3-(1,1-dioxido-4-thiomorpholinyl)propoxy]-6-methoxy-3-quinolinecarbonitrile] returned a melting point of 118 to 120 °C.
To `COc1cc(Nc2c(C#N)cnc3cc(NCCCN(C)C)c(OC)cc23)c(Cl)cc1Cl` [Example 54, 4-[(2,4-Dichloro-5-methoxyphenyl)amino]-7-{[3-(dimethylamino)propyl]amino}-6-methoxyquinoline-3-carbonitrile] belongs 165 to 167 °C.
Turning to `COc1cc2c(Nc3ccc(Sc4nccn4C)c(Cl)c3)c(C#N)cnc2cc1N1CCN(C)CC1` [Example 27, 4-[3-Chloro-4-(1-methyl-1H-imidazol-2-ylsulfanyl)-phenylamino]-6-methoxy-7-(4-methylpiperazin-1-yl)-quinoline-3-carbonitrile], the melting point lay within 270 to 272 °C.
To `COCCOc1cc2ncc(C#N)c(Nc3cc(OC)c(Cl)cc3Cl)c2cc1OC` [Example 14, 4-[(2,4-Dichloro-5-methoxyphenyl)amino]-6-methoxy-7-[2-methoxyethoxy]-3-quinolinecarbonitrile] belongs 210 to 212 °C; to `COc1cc2c(Nc3ccc(Oc4cccnc4)cc3)c(C#N)cnc2cc1OCC1CCN(C)CC1` [Example 57, 6-Methoxy-7-(1-methyl-piperidin-4-ylmethoxy)-4-{[4-(pyridin-3-yloxy)-phenyl]amino}quinoline-3-carbonitrile], 182 to 184 °C.
For `COc1cc(Nc2c(C#N)cnc3cc(N(C)CCCN(C)C)c(OC)cc23)c(Cl)cc1Cl` [Example 55, 4-[(2,4-Dichloro-5-methoxyphenyl)amino]-7-{[3-(dimethylamino)propyl](methyl)amino]-6-methoxyquinoline-3-carbonitrile], the melting point fell in the range of 116 to 117 °C.
In turn, `COc1cc(Nc2c(C#N)cnc3cc(Oc4ccncc4)c(OC)cc23)c(Cl)cc1Cl` [Example 12, 4-[(2,4-Dichloro-5-methoxyphenyl)amino]-6-methoxy-7-(pyridin-4-yloxy)-3-quinolinecarbonitrile] displayed a melting point of 267 to 269 °C.

By melting point is commonly meant the temperature, or range, at which the solid turns liquid.

The values are drawn from patent US6780996B2, “Process for the preparation of 7-substituted-3 quinolinecarbonitriles” (Wyeth Holdings Corporation, priority 2002, dated 2004).
